This test has as its target T1, Human complement C1s enzyme (Homo sapiens, UniProt P09871).
T1 sequence (P09871 438-688 limits assumed): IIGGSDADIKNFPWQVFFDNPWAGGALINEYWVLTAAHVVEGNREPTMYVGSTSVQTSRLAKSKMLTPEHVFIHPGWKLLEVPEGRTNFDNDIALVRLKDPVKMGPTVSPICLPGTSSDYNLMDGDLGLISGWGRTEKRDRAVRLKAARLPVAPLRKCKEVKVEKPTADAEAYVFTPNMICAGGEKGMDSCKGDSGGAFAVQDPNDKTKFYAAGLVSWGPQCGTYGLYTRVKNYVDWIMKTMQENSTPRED
T1 sequence (P09871 16-437 partner limits assumed): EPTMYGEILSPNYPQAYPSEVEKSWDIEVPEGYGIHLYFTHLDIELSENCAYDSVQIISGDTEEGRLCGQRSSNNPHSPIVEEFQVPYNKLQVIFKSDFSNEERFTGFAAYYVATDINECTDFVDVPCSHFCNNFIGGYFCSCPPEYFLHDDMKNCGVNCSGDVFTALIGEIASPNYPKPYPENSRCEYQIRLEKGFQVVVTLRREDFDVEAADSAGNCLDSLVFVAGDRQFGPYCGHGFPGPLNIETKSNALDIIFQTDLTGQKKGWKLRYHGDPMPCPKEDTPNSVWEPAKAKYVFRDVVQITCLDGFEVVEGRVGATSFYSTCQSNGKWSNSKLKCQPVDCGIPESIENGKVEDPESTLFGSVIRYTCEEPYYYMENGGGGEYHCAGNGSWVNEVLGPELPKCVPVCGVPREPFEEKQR
The test can be described thus: Human C1s enzyme assay. The format is biochemical. The note with it: human complement C1s enzyme 1.16 nM, substrate Z-L-Lys-SBzl 100 μM, 5 min preincubation; read-out: IC50 (Stars), C1s Inhibiting Activity. The method, boiled down:
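Serum-purified human C1s (1.16 nM final) preincubated 5 min at room temperature with compound in 50 mM Tris, 1 M NaCl, pH 7.5. Z-L-Lys-SBzl and DTNB added at 100 μM each; A405 followed every 30 s for 30 min, and IC50 obtained by nonlinear regression of reaction rates.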

Structures are written as SMILES.

As for `Cc1ccc(Oc2cccc(C(=O)NCC(=O)N3C[C@H](S(C)(=O)=O)C[C@H]3C(=O)NCc3cc4cnccc4[nH]3)c2)c(F)c1` [Compound 309, (2S,4R)-N-((1H-pyrrolo[3,2-c]pyridin-2-yl)methyl)-1-((3-(2-fluoro-4-methylphenoxy)benzoyl)glycyl)-4-(methylsulfonyl) pyrrolidine-2-carboxamide], the IC50 is less than 100 nM.
In the case of `CC1(C)c2ccccc2-c2cc(C(=O)NCC(=O)N3C[C@H](OC(F)F)C[C@H]3C(=O)NCc3cc4cnccc4[nH]3)ccc21` [Compound 301, (2S,4R)-N-((1H-pyrrolo[3,2-c]pyridin-2-yl)methyl)-4-(difluoromethoxy)-1-((9,9-dimethyl-9H-fluorene-3-carbonyl)glycyl) pyrrolidine-2-carboxamide] it was less than 100 nM; in that of `C[C@@H](NC(=O)[C@@H]1C[C@@H](OC(F)F)CN1C(=O)CNC(=O)c1cccc2c1-c1ccccc1C2(F)F)c1cc2cnccc2[nH]1` [Compound 134, (2S,4R)-N-((R)-1-(1H-pyrrolo[3,2-c]pyridin-2-yl)ethyl)-1-((9,9-difluoro-9H-fluorene-4-carbonyl)glycyl)-4-(difluoromethoxy)pyrrolidine-2-carboxamide], greater than 1000 nM.
In the case of `O=C(NCC(=O)N1C[C@H](OC(F)F)C[C@H]1C(=O)NCc1cc2c(s1)CNCC2)c1ccc2c(c1)Oc1ccccc1S2` [Compound 210, (2S,4R)-4-(difluoromethoxy)-1-((phenoxathiine-3-carbonyl)glycyl)-N-((4,5,6,7-tetrahydrothieno[2,3-c]pyridin-2-yl)methyl)pyrrolidine-2-carboxamide] it was less than 100 nM.
Next, `O=C(NCC(=O)N1CC2(C[C@H]1C(=O)NCc1cc3cnccc3s1)OCCO2)c1cccc(Oc2ccc(F)cc2)c1` [Compound 255, (S)-7-((3-(4-fluorophenoxy)benzoyl)glycyl)-N-(thieno[3,2-c]pyridin-2-ylmethyl)-1,4-dioxa-7-azaspiro[4.4]nonane-8-carboxamide]: 100 to 1000 nM.
For `C[C@@]12C[C@@H]1N(C(=O)CNC(=O)CCCOc1ccccc1)[C@H](C(=O)NC1(c3nc4cnccc4[nH]3)CC1)C2` [Compound 109, (1S,3S,5S)-N-(1-(1H-imidazo[4,5-c]pyridin-2-yl)cyclopropyl)-5-methyl-2-((4-phenoxybutanoyl)glycyl)-2-azabicyclo[3.1.0]hexane-3-carboxamide], the IC50 was greater than 1000 nM.
In the case of `Cc1ccc(Oc2cccc(C(=O)NCC(=O)N3C[C@H](OC(F)F)C[C@H]3C(=O)NCc3cc4cnccc4[nH]3)c2)s1` [Compound 366, (2S,4R)-N-((1H-pyrrolo[3,2-c]pyridin-2-yl)methyl)-4-(difluoromethoxy)-1-((3-((5-methylthiophen-2-yl)oxy)benzoyl)glycyl)pyrrolidine-2-carboxamide] it was less than 100 nM; in that of `CS(=O)(=O)[C@@H]1C[C@@H](C(=O)NCc2cc3cnccc3[nH]2)N(C(=O)CNC(=O)c2ccc3c(c2)Oc2ccccc2S3)C1` [Compound 27, (2S,4R)-N-((1H-pyrrolo[3,2-c]pyridin-2-yl)methyl)-4-(methylsulfonyl)-1-((phenoxathiine-3-carbonyl)glycyl)pyrrolidine-2-carboxamide], less than 100 nM; in that of `O=C(NCC(=O)N1C[C@H](OC(F)F)C[C@H]1C(=O)NCc1ccc2c(c1)CCNC2)c1ccc2c(c1)Oc1ccccc1S2` [Compound 223, (2S,4R)-4-(difluoromethoxy)-1-((phenoxathiine-3-carbonyl)glycyl)-N-((1,2,3,4-tetrahydroisoquinolin-6-yl)methyl)pyrrolidine-2-carboxamide], 100 to 1000 nM.
Regarding `C[C@@H](NC(=O)[C@@H]1C[C@H](C2OCCCO2)CN1C(=O)CNC(=O)c1ccc2c(c1)Oc1ccccc1S2)c1cc2cnccc2[nH]1` [Compound 146, (2S,4S)-N-((R)-1-(1H-pyrrolo[3,2-c]pyridin-2-yl)ethyl)-4-(1,3-dioxan-2-yl)-1-((phenoxathiine-3-carbonyl)glycyl)pyrrolidine-2-carboxamide], the IC50 was less than 100 nM.
Next, `C[C@@H](NC(=O)[C@@H]1CC2(CN1C(=O)CNC(=O)c1ccc3c(c1)Oc1ccccc1S3)OCCO2)c1cc2cnccc2s1` [Compound 206, (S)-7-((phenoxathiine-3-carbonyl)glycyl)-N-((R)-1-(thieno[3,2-c]pyridin-2-yl)ethyl)-1,4-dioxa-7-azaspiro[4.4]nonane-8-carboxamide]: less than 100 nM; `O=C(NCC(=O)N1C[C@H](OC(F)F)C[C@H]1C(=O)NCc1cc2cnccc2s1)c1ccc2c(c1)Oc1ccccc1S2` [Compound 141, (2S,4R)-4-(difluoromethoxy)-1-((phenoxathiine-3-carbonyl)glycyl)-N-(thieno[3,2-c]pyridin-2-ylmethyl)pyrrolidine-2-carboxamide]: less than 100 nM.
In the case of `Cc1ccc(Oc2cc(C(=O)NCC(=O)N3C[C@H](OC(F)F)C[C@H]3C(=O)NCc3cc4cnccc4[nH]3)ccc2C)cc1` [Compound 244, (2S,4R)-N-((1H-pyrrolo[3,2-c]pyridin-2-yl)methyl)-4-(difluoromethoxy)-1-((4-methyl-3-(p-tolyloxy)benzoyl)glycyl) pyrrolidine-2-carboxamide] it was less than 100 nM; in that of `O=C(NCC(=O)N1CC2(C[C@H]1C(=O)NCc1ncc[nH]1)OCCO2)c1ccc(Oc2ccccc2)cc1` [Compound 15, (S)-N-((1H-imidazol-2-yl)methyl)-7-((4-phenoxybenzoyl)glycyl)-1,4-dioxa-7-azaspiro[4.4]nonane-8-carboxamide], greater than 1000 nM.
In the case of `C[C@@]12C[C@@H]1N(C(=O)CNC(=O)c1ccc3c(c1)Oc1ccccc1S3)[C@H](C(=O)NCc1cc3c(s1)CNCC3)C2` [Compound 112, (1S,3S,5S)-5-methyl-2-((phenoxathiine-3-carbonyl)glycyl)-N-((4,5,6,7-tetrahydrothieno[2,3-c]pyridin-2-yl)methyl)-2-azabicyclo[3.1.0]hexane-3-carboxamide] it was less than 100 nM; in that of `C[C@@]12C[C@@H]1N(C(=O)CN1Cc3ccc(Oc4ccccc4)cc3C1=O)[C@H](C(=O)NCc1cc3cnccc3[nH]1)C2` [Compound 156, (1S,3S,5S)-N-((1H-pyrrolo[3,2-c]pyridin-2-yl)methyl)-5-methyl-2-(2-(1-oxo-6-phenoxyisoindolin-2-yl)acetyl)-2-azabicyclo[3.1.0]hexane-3-carboxamide], 100 to 1000 nM; in that of `O=C(NCC(=O)N1C[C@H](OC(F)F)C[C@H]1C(=O)NCc1ccc2c(n1)NCC2)c1ccc2c(c1)Oc1ccccc1S2` [Compound 265, (2S,4R)-4-(difluoromethoxy)-N-((2,3-dihydro-1H-pyrrolo[2,3-b]pyridin-6-yl)methyl)-1-((phenoxathiine-3-carbonyl)glycyl)pyrrolidine-2-carboxamide], greater than 1000 nM.
Consider `O=C(NCC(=O)N1CC2(C[C@H]1C(=O)NCc1cc3cnccc3[nH]1)OCCO2)c1ccc(Oc2ccccc2)cc1` [Compound 32, (S)-N-((1H-pyrrolo[3,2-]pyridin-2-yl)methyl)-7-((4-phenoxybenzoyl)glycyl)-1,4-dioxa-7-azaspiro[4.4]nonane-8-carboxamide], for which the IC50 was less than 100 nM.
In the case of `O=C(CCCOc1ccccc1)NCC(=O)N1CC2(C[C@H]1C(=O)NCc1cc3cnccc3[nH]1)OCCO2` [Compound 20, (S)-N-((1H-pyrrolo[3,2-c]pyridin-2-yl)methyl)-7-((4-phenoxybutanoyl)glycyl)-1,4-dioxa-7-azaspiro[4.4]nonane-8-carboxamide] it was less than 100 nM; in that of `O=C(NCC(=O)N1C[C@H](OC(F)F)C[C@H]1C(=O)NCc1ccc2cn[nH]c2c1)c1ccc2c(c1)Oc1ccccc1S2` [Compound 199, (2S,4R)-N-((1H-indazol-6-yl)methyl)-4-(difluoromethoxy)-1-((phenoxathiine-3-carbonyl)glycyl)pyrrolidine-2-carboxamide], greater than 1000 nM; in that of `O=C(NCC(=O)N1C[C@H](OC(F)F)C[C@H]1C(=O)N[C@H](CO)c1cc2cnccc2[nH]1)c1ccc2c(c1)-c1ccccc1C2(F)F` [Compound 103, (2S,4R)-1-((9,9-difluoro-9H-fluorene-3-carbonyl)glycyl)-4-(difluoromethoxy)-N-((S)-2-hydroxy-1-(1H-pyrrolo[3,2-c]pyridin-2-yl)ethyl) pyrrolidine-2-carboxamide], 100 to 1000 nM.
Next, `O=C(NCC(=O)N1C[C@H](OC(F)F)C[C@H]1C(=O)NCc1cnc2[nH]ccc2c1)c1ccc2c(c1)Oc1ccccc1S2` [Compound 247]: 100 to 1000 nM; `C[C@@H](NC(=O)[C@@H]1C[C@@H](OC(F)F)CN1C(=O)CNC(=O)c1ccc2c(c1)-c1ccccc1C2(F)F)c1cc2cnccc2[nH]1` [Compound 77, (2S,4R)-N-((R)-1-(1H-pyrrolo[3,2-c]pyridin-2-yl)ethyl)-1-((9,9-difluoro-9H-fluorene-3-carbonyl)glycyl)-4-(difluoromethoxy)pyrrolidine-2-carboxamide]: less than 100 nM.

What is called IC50 is the concentration that gives 50% inhibition.

The record behind these values is patent US20260062443A1 (ALEXION PHARMACEUTICALS, INC., priority 2022, published 2026).
